# Data as given in PMC4769319, “Cohesin Releases DNA through Asymmetric ATPase-Driven Ring Opening” (Molecular Cell, 2016).
# Target: T1, Smc1/Smc3 heterodimer with Scc1-C (cohesin) (Saccharomyces cerevisiae, UniProt P32908+P47037, P32908:D1164E, form not given)
# T1 construct: N-terminal tags; Sf9 insect cells; fluorescently labelled for MST; with Sister chromatid cohesion protein 1
# T1 sequence (P32908 1-1225 D1164E): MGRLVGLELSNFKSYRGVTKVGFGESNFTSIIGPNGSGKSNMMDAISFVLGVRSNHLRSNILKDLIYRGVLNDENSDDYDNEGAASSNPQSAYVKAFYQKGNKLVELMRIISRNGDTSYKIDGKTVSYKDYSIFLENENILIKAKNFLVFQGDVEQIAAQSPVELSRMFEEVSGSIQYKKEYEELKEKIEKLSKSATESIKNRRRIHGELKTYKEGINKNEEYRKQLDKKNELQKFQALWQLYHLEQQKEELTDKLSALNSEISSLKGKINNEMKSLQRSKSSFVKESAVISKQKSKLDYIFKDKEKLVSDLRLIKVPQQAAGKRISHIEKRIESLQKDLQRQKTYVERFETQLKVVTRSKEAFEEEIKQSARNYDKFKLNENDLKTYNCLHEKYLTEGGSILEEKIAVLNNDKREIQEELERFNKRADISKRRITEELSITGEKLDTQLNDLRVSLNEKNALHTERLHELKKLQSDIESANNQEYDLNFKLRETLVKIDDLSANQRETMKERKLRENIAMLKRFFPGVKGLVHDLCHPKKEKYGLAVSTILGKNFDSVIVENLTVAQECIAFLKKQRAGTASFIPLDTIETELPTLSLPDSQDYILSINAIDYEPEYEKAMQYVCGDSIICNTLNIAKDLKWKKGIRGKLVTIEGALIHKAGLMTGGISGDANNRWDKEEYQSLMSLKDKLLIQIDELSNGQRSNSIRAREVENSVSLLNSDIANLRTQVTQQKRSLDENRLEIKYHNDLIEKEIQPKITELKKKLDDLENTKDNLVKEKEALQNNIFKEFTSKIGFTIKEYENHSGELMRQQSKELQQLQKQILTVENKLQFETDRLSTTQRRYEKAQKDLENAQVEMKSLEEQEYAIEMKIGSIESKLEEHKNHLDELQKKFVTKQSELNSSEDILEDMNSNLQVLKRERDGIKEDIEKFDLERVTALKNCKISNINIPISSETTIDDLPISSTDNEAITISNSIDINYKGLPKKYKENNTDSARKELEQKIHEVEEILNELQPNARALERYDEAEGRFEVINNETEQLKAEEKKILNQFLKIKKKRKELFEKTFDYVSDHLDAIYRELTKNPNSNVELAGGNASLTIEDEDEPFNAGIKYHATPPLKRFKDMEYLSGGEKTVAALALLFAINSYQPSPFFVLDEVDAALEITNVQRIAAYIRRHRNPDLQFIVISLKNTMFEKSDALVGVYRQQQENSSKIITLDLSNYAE
# T1 sequence (P47037 1-1230): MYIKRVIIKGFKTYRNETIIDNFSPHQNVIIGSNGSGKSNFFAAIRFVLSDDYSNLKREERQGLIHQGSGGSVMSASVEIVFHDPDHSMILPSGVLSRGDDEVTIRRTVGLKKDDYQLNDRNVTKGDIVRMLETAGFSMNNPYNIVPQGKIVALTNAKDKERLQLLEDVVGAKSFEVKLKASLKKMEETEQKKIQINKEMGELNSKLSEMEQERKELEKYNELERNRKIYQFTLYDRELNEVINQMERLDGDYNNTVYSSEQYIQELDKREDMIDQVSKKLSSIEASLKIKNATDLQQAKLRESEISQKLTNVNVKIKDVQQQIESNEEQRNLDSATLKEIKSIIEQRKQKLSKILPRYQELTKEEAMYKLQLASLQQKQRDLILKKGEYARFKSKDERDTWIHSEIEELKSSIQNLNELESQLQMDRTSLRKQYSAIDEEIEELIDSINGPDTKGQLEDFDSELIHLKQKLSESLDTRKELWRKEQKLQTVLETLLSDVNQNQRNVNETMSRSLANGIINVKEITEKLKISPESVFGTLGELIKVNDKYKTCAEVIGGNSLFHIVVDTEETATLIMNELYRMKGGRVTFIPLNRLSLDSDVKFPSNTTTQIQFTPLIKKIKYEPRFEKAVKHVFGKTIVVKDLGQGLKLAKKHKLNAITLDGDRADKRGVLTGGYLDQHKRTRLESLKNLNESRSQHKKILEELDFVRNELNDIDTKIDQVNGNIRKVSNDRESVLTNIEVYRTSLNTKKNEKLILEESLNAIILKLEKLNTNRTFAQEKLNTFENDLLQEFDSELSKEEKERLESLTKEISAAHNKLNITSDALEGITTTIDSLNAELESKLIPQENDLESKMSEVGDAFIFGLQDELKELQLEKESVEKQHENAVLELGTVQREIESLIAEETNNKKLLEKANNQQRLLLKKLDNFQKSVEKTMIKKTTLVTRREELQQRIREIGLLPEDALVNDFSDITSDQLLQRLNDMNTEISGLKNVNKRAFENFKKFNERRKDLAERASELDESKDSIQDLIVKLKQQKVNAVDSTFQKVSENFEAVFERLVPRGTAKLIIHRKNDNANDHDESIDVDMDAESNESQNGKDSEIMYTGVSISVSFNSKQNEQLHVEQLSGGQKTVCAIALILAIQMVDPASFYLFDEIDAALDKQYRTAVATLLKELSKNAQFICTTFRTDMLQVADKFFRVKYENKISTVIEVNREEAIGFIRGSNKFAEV
# T1 sequence (Q12158 1-566 partner): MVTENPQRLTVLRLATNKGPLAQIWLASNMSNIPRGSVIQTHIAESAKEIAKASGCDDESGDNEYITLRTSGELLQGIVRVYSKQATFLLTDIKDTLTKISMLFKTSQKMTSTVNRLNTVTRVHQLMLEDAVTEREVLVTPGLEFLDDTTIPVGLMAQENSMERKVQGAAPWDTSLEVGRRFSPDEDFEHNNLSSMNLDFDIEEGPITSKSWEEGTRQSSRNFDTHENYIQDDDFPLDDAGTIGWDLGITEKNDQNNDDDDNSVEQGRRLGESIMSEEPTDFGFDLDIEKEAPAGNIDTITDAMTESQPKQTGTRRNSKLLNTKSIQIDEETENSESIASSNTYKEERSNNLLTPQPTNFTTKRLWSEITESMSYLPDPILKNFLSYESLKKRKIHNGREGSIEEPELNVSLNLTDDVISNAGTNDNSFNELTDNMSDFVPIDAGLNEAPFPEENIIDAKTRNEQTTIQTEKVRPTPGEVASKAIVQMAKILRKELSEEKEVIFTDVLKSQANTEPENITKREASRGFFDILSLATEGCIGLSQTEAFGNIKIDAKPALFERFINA
# Experiment: microscale thermophoresis
# Assay type: binding
# Conditions: fluorescently labelled protein; Smc1 co-purified with Scc1-C, plus Smc3; read-out: affinity
# Text: microscale thermophoresis on Smc1/Smc3 heterodimer with Scc1-C (cohesin) | Smc1 L1129V, D1164E and E1158Q mutants all had wild-type-like affinity to both ATP and ADP | wild-type and mutant cohesin complexes appear to have similar affinities to ADP
row,Kd,SMILES
1,> 1000 µM,Nc1ncnc2c1ncn2[C@@H]1O[C@H](COP(=O)(O)OP(=O)(O)O)[C@@H](O)[C@H]1O [ADP]
2,542 ± 188 µM,Nc1ncnc2c1ncn2[C@@H]1O[C@H](COP(=O)(O)OP(=O)(O)OP(=O)(O)O)[C@@H](O)[C@H]1O [ATP]
